What was measured:
Experiment in all cases: Kinase panel profiling at 1 µmol/L (MSA or IMAP), percentage inhibition
Assay type in all cases: biochemical
[1] = target: panel of 255 wild-type kinases (Homo sapiens, UniProt P27448); conditions: MARK3; 1 µmol/L single concentration; read-out: %-inhibition, MARK3
[2] = target: panel of 255 wild-type kinases (Homo sapiens, UniProt Q9P286); conditions: PAK5; 1 µmol/L single concentration; read-out: %-inhibition, PAK5
[3] = target: panel of 255 wild-type kinases (Homo sapiens, UniProt Q16620); conditions: kinase TRKB; 1 µmol/L single concentration; read-out: %-inhibition at 1 µmol/L, TRKB
[4] = target: panel of 255 wild-type kinases (Homo sapiens, UniProt Q9H4B4); conditions: kinase PLK3; 1 µmol/L single concentration; read-out: %-inhibition at 1 µmol/L, PLK3
[5] = target: panel of 255 wild-type kinases (Homo sapiens, UniProt Q00534); conditions: CDK6/CycD3 kinase assay; 1 µmol/L single concentration; read-out: %-inhibition CDK6/CycD3
[6] = target: panel of 255 wild-type kinases (Homo sapiens, UniProt P50613); conditions: CDK7/CycH/MAT1 kinase assay; 1 µmol/L single concentration; read-out: %-inhibition CDK7/CycH/MAT1
[7] = target: panel of 255 wild-type kinases (Homo sapiens, UniProt Q9UPE1); conditions: MSSK1; 1 µmol/L single concentration; read-out: %-inhibition, MSSK1
[8] = target: T1, panel of 255 wild-type kinases (Homo sapiens, UniProt O00141); conditions: kinase SGK; 1 µmol/L single concentration; read-out: %-inhibition at 1 µmol/L, SGK
T1 sequence (O00141 1-431): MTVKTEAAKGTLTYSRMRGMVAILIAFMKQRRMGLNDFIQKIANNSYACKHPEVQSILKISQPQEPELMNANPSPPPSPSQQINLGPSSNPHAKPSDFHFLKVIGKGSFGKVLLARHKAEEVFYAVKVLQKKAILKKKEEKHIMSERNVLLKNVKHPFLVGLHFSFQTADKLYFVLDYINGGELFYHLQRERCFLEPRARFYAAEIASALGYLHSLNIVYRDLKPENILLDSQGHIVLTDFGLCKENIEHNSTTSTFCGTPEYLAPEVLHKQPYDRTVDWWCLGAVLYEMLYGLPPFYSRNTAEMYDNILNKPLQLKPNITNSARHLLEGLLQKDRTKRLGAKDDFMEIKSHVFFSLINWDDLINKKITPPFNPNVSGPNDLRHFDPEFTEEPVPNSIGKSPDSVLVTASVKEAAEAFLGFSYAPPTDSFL

[9] = target: panel of 255 wild-type kinases (Homo sapiens, UniProt Q9H2X6); conditions: kinase HIPK2; 1 µmol/L single concentration; read-out: %-inhibition at 1 µmol/L, HIPK2
[10] = target: panel of 255 wild-type kinases (Homo sapiens, UniProt Q9H422); conditions: kinase HIPK3; 1 µmol/L single concentration; read-out: %-inhibition at 1 µmol/L, HIPK3
[11] = target: panel of 255 wild-type kinases (Homo sapiens, UniProt Q13554); conditions: CaMK2β kinase assay; 1 µmol/L single concentration; read-out: %-inhibition CaMK2β
[12] = target: panel of 255 wild-type kinases (Homo sapiens, UniProt Q9H0K1); conditions: kinase QIK; 1 µmol/L single concentration; read-out: %-inhibition at 1 µmol/L, QIK
[13] = target: T2, panel of 255 wild-type kinases (Homo sapiens, UniProt Q13470); conditions: kinase TNK1; 1 µmol/L single concentration; read-out: %-inhibition at 1 µmol/L, TNK1
T2 sequence (Q13470 1-666): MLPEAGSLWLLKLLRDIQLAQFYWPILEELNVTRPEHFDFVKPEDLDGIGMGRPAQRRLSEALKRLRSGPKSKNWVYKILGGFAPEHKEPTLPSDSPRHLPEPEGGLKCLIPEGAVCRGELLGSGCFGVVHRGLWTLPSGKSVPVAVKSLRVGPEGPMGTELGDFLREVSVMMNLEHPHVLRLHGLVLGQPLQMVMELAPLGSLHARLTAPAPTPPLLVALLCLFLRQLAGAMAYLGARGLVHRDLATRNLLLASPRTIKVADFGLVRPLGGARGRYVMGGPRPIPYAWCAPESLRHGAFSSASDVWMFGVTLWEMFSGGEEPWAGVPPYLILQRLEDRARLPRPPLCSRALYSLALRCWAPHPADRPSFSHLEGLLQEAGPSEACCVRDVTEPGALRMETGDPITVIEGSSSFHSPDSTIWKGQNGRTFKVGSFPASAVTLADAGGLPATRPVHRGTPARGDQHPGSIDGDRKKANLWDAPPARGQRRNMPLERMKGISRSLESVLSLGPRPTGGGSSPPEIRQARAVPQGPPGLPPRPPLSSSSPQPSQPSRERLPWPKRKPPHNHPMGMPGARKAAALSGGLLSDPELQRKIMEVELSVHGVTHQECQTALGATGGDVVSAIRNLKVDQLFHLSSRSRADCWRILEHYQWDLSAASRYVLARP

| Compound | inhibition at 1 µM [1] [%] | inhibition at 1 µM [2] [%] | inhibition at 1 µM [3] [%] | inhibition at 1 µM [4] [%] | inhibition at 1 µM [5] [%] | inhibition at 1 µM [6] [%] | inhibition at 1 µM [7] [%] | inhibition at 1 µM [8] [%] | inhibition at 1 µM [9] [%] | inhibition at 1 µM [10] [%] | inhibition at 1 µM [11] [%] | inhibition at 1 µM [12] [%] | inhibition at 1 µM [13] [%] |
| --- | --- | --- | --- | --- | --- | --- | --- | --- | --- | --- | --- | --- | --- |
| CO[C@]1(C(=O)N[C@@H](C)c2ccc(-n3cc(F)cn3)nc2)CC[C@H](c2nc(C)cc(Nc3cc(C)[nH]n3)n2)CC1 [pralsetinib] | -8 | 69 | 94 | -0.12 | -1.2 | 19 | -6 | 7 | 11 | 9 | -0.895 | -2.55 | 71 |
| COc1cc2ncnc(Nc3ccc(F)c(Cl)c3)c2cc1NC(=O)/C=C/CN1CCCCC1 [dacomitinib] | 10 | 4.29 | 6 | 3.6 | -6 | 3.35 | 0.445 | -6 | 4.76 | 3.75 | 2.54 | 68 | 35 |
| CCn1c(=O)c(-c2cc(NC(=O)Nc3ccccc3)c(F)cc2Br)cc2cnc(NC)cc21 [ripretinib] | 1.78 | 1.9 | 64 | 4 | -7 | -1.48 | -0.94 | -5 | 0.0334 | 4 | 1.19 | 7 | 17 |
| Cc1nc(NC(=O)N2CCC[C@H]2C(N)=O)sc1-c1ccnc(C(C)(C)C(F)(F)F)c1 [alpelisib] | 11 | -2.58 | -2.43 | 1.89 | 2 | -4 | -3.38 | -5.64 | 3.33 | 7 | -7 | 2.48 | -4.23 |
| C=CC(=O)N1CCC([C@@H]2CCNc3c(C(N)=O)c(-c4ccc(Oc5ccccc5)cc4)nn32)CC1 [zanubrutinib] | -1.28 | 0.606 | 6.58 | -4.39 | 3.49 | -9 | -2.31 | -0.675 | -0.321 | -2.42 | 2.44 | -4 | 1.66 |
| O=C(Nc1cnn2ccc(N3CCC[C@@H]3c3cc(F)ccc3F)nc12)N1CC[C@H](O)C1 [larotrectinib] | 4 | -0.213 | 102 | -0.714 | -0.0563 | -8 | -1.58 | -1.16 | -0.39 | -4 | 0.902 | -6.33 | -0.876 |
| Cc1cc(Nc2ncnc3ccc(NC4=NC(C)(C)CO4)cc23)ccc1Oc1ccn2ncnc2c1 [tucatinib] | -10 | 3.53 | 6 | 1.59 | -2.12 | 6 | 1.14 | 0.299 | 6 | 2.27 | 1.33 | -2.58 | 4.33 |
| FC(F)(F)c1ccc(CNc2ccc(Cc3c[nH]c4ncc(Cl)cc34)cn2)cn1 [pexidartinib] | 12 | 7 | 75 | 12 | -6.52 | 22 | -4 | 11 | 4.6 | 3.52 | 3 | 11 | 37 |
| Cn1cnc2c(F)c(Nc3ccc(Br)cc3F)c(C(=O)NOCCO)cc21 [binimetinib] | 7 | 5 | 3.62 | -0.0416 | -0.0739 | -5 | -4.37 | 5 | -4.27 | 0.0241 | 2.18 | -4 | -8 |
| CN1CCN(c2ccc(C(=O)Nc3n[nH]c4ccc(Cc5cc(F)cc(F)c5)cc34)c(NC3CCOCC3)c2)CC1 [entrectinib] | 15 | 25 | – | 4.71 | 1.6 | 27 | 12 | -5.65 | 8 | 5 | 13 | 6.5 | 99 |
| COC(=O)N[C@@H](C)CNc1nccc(-c2cn(C(C)C)nc2-c2cc(Cl)cc(NS(C)(=O)=O)c2F)n1 [encorafenib] | 8 | 0.399 | 7.42 | 0.929 | 6 | -6.5 | 1.39 | 7 | 0.238 | 5.63 | 4.23 | -0.749 | -3.4 |
| C[C@H]1Oc2cc(cnc2N)-c2c(nn(C)c2C#N)CN(C)C(=O)c2ccc(F)cc21 [lorlatinib] | 26 | 11 | – | 2.15 | 2.65 | – | 33 | -0.181 | -2 | 0.506 | -3.21 | 2.53 | 97 |
| CCN1CCN(c2ccc(Nc3cc(N(C)C(=O)Nc4c(Cl)c(OC)cc(OC)c4Cl)ncn3)cc2)CC1 [infigratinib] | -7.59 | 2.49 | 6 | -0.24 | 17 | 9 | -2.83 | -1.45 | -0.912 | -3.71 | – | 26 | 21 |
